# Results published in publication PMC11489133, “Obicetrapib exhibits favorable physiochemical and pharmacokinetic properties compared to previous cholesteryl ester transfer protein inhibitors: An integrated summary of results from non‐human primate studies and clinical trials” (Pharmacology Research & Perspectives, 2024).
# Where two headings read alike, the source gives them in different places.
# Assays:
# [1] = TULIP Phase II trial, plasma concentrations of obicetrapib; type: in vivo, humans; conditions: any of the participants
# [2] = design: method as in PMID 24628035; conditions: cited from earlier work; for t ½ (terminal half‐life) / AUC (0–24 h) / C max / t max: fasting; for t ½ (terminal half‐life): arithmetic mean (CV%); for AUC (0–24 h) / C max: geometric mean (CV%); for C max: healthy White males
# [3] = Phase II trials of obicetrapib, integrated summary of post-treatment elimination; type: in vivo, humans
# Source text: The Phase II trials of obicetrapib described herein include the TA‐8995: Its Use in Patients with Mild Dyslipidaemia (TULIP)[10] study, the Randomized Study of Obicetrapib as an Adjunct to Statin Therapy (ROSE),[11] the Study to Evaluate the Effect of Obicetrapib in Combination with Ezetimibe as an Adjunct to High‐Intensity Statin Therapy (ROSE2),[12] and A Dose‐Finding Study in Japanese Patients to Evaluate the Effect of Obicetrapib as an Adjunct to Stable Statin Therapy (TA‐8995‐203).[13]
# [4] = absorption, metabolism and excretion study of a single 10 mg dose of 14C-obicetrapib (NCT02408055, TA‐8995‐07); type: in vivo, humans
# Procedure: Figure 2 illustrates the obicetrapib (TA‐8995) M1 detected above the LLOQ (>1% radioactivity) in human plasma expressed as the percent radioactivity profiled. A study (NCT02408055) was conducted in healthy male participants (n = 6) to assess the absorption, metabolism, and excretion of a single dose of 10 mg of ^14C‐obicetrapib (TA‐8995‐07 CSR, NewAmsterdam Pharma). One of the objectives of the study was to determine the chemical structure of ^14C‐obicetrapib M1 that represent ≥10% of total radioactivity in plasma. The participants received 10 mL ^14C‐obicetrapib oral suspension, containing 10 mg and 100 μCi of ^14C‐obicetrapib in the fasted state. Clinical samples for analysis were selected based upon the levels of radioactivity present as determined by liquid scintillation counting and were stored at below −50°C (nominally −80°C) when not in use. Plasma samples from the participants were sequentially extracted with acetonitrile at five time points. The resulting extracts were concentrated by evaporation and reconstituted in mobile phase HPLC prior to analysis by radio‐HPLC. All samples were analyzed by liquid scintillation counting to evaluate the recovery of radioactivity. The profiles of the radiolabeled components in each sample of plasma were determined by HPLC analysis with off‐line radio‐detection. Selected samples from each matrix were then further analyzed by high‐resolution mass spectrometry to investigate the identity of M1. In plasma, the predominant metabolite component was unchanged obicetrapib (~79% of total drug‐related exposure), and the most abundant plasma M1 were M1 and P9 of which each accounted for ~4% of total exposure (Figure 2). No significant differences in the metabolite profiles were observed across the samples obtained from the six participants (TA‐8995‐07 CSR, NewAmsterdam Pharma).
# [5] = TA‐8995‐203 Phase II trial in Japanese participants, plasma concentrations of obicetrapib; type: in vivo, humans; conditions: for Mean (SD) Plasma Level / concentration at 8 weeks: Week 8 (EOT), Japanese participants; for % Change in Plasma Level: Week 8 to Week 12, mean (SD); for concentration at 8 weeks / concentration at 12 weeks: both sexes, human, plasma, oral, read-out: Mean (SD) Plasma Level; for concentration at 12 weeks: Week 12, four weeks after the end of treatment
# Procedure: The PK parameters and the effect of food on the bioavailability of obicetrapib in humans have been examined in both Phase I[9] (TA‐8995‐09 CSR, NewAmsterdam Pharma) and Phase II trials.[10], [11], [12], [13] The trials were performed in accordance with the Declaration of Helsinki, Good Clinical Practice Guidelines, and applicable regulatory requirements. Approval was obtained from the relevant ethical review boards for each site. All volunteers provided written informed consent prior to participation. PK parameters were determined using WinNonlin software, version 4.1 or higher (Pharsight/Certara Corporation, USA). Concentrations of obicetrapib were summarized for each treatment group using descriptive statistics.
# This Phase II trial (NCT05421078) was designed to evaluate the efficacy, safety, and tolerability of obicetrapib as an adjunct to stable statin therapy in Japanese participants with LDL‐C >70 mg/dL, or non‐HDL‐C >100 mg/dL, and triglyceride levels <400 mg/dL.[13] Eligible participants were receiving either atorvastatin 10 or 20 mg or rosuvastatin 5 or 10 mg for at least 8 weeks prior to screening and continued statin therapy throughout the treatment period. One hundred two participants (mean age: 64.8 years; 71.6% male; mean BMI: 25.6 kg/m^2) were enrolled at nine clinical research sites in Japan and randomized to one of four treatment groups in a 1:1:1:1 ratio: 1) placebo; 2) 2.5 mg obicetrapib; 3) 5 mg obicetrapib; or 4) 10 mg obicetrapib.
# The participants were instructed to take their assigned treatment orally once daily at approximately the same time each morning for the 8‐week treatment period. After randomization, participants returned to the clinical research site during Weeks 2, 4, and 8 (end of treatment) for PK assessments. Participants also completed a follow‐up visit 4 weeks after the end of treatment (Week 12) for a final PK assessment. All of the participants who were randomized completed the treatment and were included in the primary analysis. The PK population included all randomized participants in the mITT population assigned to the three obicetrapib dose groups who had sufficient blood samples collected for valid estimation of PK parameters; 76 (100%) participants in the PK population were included in the 4‐week post‐end of treatment PK analysis (TA‐8995‐203 CSR, NewAmsterdam Pharma).
# [6] = Obicetrapib 2.5 mg + stable statin therapy
# [7] = Obicetrapib 5 mg + stable statin therapy
# [8] = Obicetrapib 10 mg + stable statin therapy
smiles,measurement,setting,value
CCOC(=O)N1c2ccc(C(F)(F)F)cc2C(N(Cc2cc(C(F)(F)F)cc(C(F)(F)F)c2)c2ncc(OCCCC(=O)O)cn2)CC1CC (stereo not shown) [Obicetrapib],obicetrapib in urine,[1],not detected
same,effect of food on the AUC or C max,"[2]; 50 mg dose, fed versus fasted, n = 5 White healthy males",did not have a clinically relevant effect
same,"effects of food, age, gender, or ethnicity on the PK parameters",[2]; PK assessment results of the other groups,no clinically relevant effects
same,t ½ (terminal half‐life),[2]; single dose 5 mg,125 (22%) h
same,AUC (0–24 h),[2]; single dose 5 mg,1816 (34%) ng·h/mL
same,C max,[2]; single dose 5 mg,138 (33%) ng/mL
same,t max,"[2]; single dose 5 mg, median (minimum, maximum)","3 (2, 3) h"
same,t max,"[2]; single dose 5 mg, median (minimum, maximum), listed as obicetrapib",≤ 3 h
same,t ½ (terminal half‐life),[2]; single dose 10 mg,124 (20%) h
same,AUC (0–24 h),[2]; single dose 10 mg,3580 (21%) ng·h/mL
same,C max,[2]; single dose 10 mg,251 (23%) ng/mL
same,t max,"[2]; single dose 10 mg, median (minimum, maximum)","3 (2, 5) h"
same,t max,"[2]; single dose 10 mg, median (minimum, maximum), listed as obicetrapib",≤ 3 h
same,t ½ (terminal half‐life),[2]; single dose 25 mg,162 (19%) h
same,AUC (0–24 h),[2]; single dose 25 mg,5952 (26%) ng·h/mL
same,C max,[2]; single dose 25 mg,467 (30%) ng/mL
same,t max,"[2]; single dose 25 mg, median (minimum, maximum)","3.5 (2, 6) h"
same,t max,[2]; single doses 50–150 mg,4 h
same,obicetrapib in urine,"[2]; single doses, any participant",not detected
same,decrease of plasma levels of obicetrapib,[3]; 15 weeks post‐treatment,98.5%
same,decrease of plasma levels of obicetrapib,[3]; four weeks post‐treatment,92.2%
same,percent radioactivity profiled in human plasma,"[4]; n = 6 individuals, 24 h AUC pools, Figure 2",up to 92.8%
same,share of total drug‐related exposure in plasma,"[4]; single 10 mg 14C‐obicetrapib, fasted, healthy males n = 6",~ 79%
same,Mean (SD) Plasma Level,[5]; [6],194.5 (42.7) ng/mL
same,% Change in Plasma Level,[5]; [6],−93.4 (2.6) %
same,% Change in Plasma Level,"[5]; Obicetrapib 2.5 mg + stable statin therapy, listed as obicetrapib",−93.4%
same,% Change in Plasma Level,[5]; [7],−93.5 (3.4) %
same,% Change in Plasma Level,"[5]; Obicetrapib 5 mg + stable statin therapy, listed as obicetrapib",−93.5%
same,Mean (SD) Plasma Level,[5]; [8],506.3 (237.5) ng/mL
same,% Change in Plasma Level,[5]; [8],−95.2 (2.3) %
same,% Change in Plasma Level,"[5]; Obicetrapib 10 mg + stable statin therapy, listed as obicetrapib",−95.2%
same,concentration at 8 weeks,"[5]; 2.5 mg, Obicetrapib 2.5 mg + stable statin therapy",194 ng/mL
same,concentration at 8 weeks,"[5]; 10 mg, Obicetrapib 10 mg + stable statin therapy",506 ng/mL
same,concentration at 12 weeks,[5]; [6],13.2 ng/mL
same,concentration at 8 weeks,[5]; [7],362 ng/mL
same,concentration at 12 weeks,[5]; [7],24.6 ng/mL
same,concentration at 12 weeks,[5]; [8],27.6 ng/mL
